Reference: patent publication US12723063B2, “GIPR-agonist compounds” (Eli Lilly and Company, priority 2019, dated 2026)
*1 amine or outer side, *2 acyl side, *3 side chain or, on linkers, in order; H or OH if unused. Where a SMILES comes first, the peptide text is derived from it. Side-chain parts run from the residue outwards. [ ]: non-standard residue; d: D form. The star is where a group is joined. C20 diacid = O=C(O)CCCCCCCCCCCCCCCCCCC(=O)*; C18 diacid = O=C(O)CCCCCCCCCCCCCCCCC(=O)*; γGlu = O=C(O)[C@H](CCC(=O)[*:2])N[*:1]; αMeY = C[C@](N)(Cc1ccc(O)cc1)C(=O)O; 4Pal = N[C@@H](Cc1ccncc1)C(=O)O; αMeL = CC(C)C[C@](C)(N)C(=O)O; Iva = CC[C@](C)(N)C(=O)O; Orn = NCCC[C@H](N)C(=O)O; AEEA = NCCOCCOCC(=O)O; Aib = CC(C)(N)C(=O)O

Molecular target: T1, human GLP-1R (Homo sapiens, UniProt P43220)
T1 construct: expressed in transfected cells; crude membranes
Experiment: [125I]-GLP-1 binding, SPA with WGA beads, 0.1% bacitracin
Conditions: geometric mean, read-out: hGLP1R Ki
Method in brief: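 Binding buffer was 25 mM HEPES pH 7.4 with 2.5 mM CaCl2, 1 mM MgCl2, 0.1% (w/v) bacitracin, 0.003% Tween-20 and EDTA-free protease inhibitors. Four-parameter regression gave IC50, converted to Ki (geometric mean, SEM, n independent days).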

T1 sequence (P43220 24-463): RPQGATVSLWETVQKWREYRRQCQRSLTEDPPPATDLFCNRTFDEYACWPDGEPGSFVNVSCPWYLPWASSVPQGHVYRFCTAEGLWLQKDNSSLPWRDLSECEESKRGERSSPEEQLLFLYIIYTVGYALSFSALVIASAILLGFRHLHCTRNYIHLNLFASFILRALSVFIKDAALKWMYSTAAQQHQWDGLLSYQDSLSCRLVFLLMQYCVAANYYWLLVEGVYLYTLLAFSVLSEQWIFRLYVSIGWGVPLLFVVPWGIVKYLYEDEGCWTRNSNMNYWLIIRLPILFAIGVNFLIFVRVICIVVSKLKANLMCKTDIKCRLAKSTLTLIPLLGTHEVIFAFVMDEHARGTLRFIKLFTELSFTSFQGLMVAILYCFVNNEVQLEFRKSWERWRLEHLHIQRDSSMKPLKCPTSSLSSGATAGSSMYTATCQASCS

Compared with CC[C@H](C)[C@H](NC(=O)[C@H](Cc1ccccc1)NC(=O)[C@@H](NC(=O)CNC(=O)[C@H](CCC(=O)O)NC(=O)C(C)(C)NC(=O)[C@@H](N)Cc1ccc(O)cc1)[C@@H](C)O)C(=O)N[C@@H](CO)C(=O)N[C@@H](CC(=O)O)C(=O)N[C@@H](Cc1ccc(O)cc1)C(=O)N[C@@H](CO)C(=O)N[C@H](C(=O)N[C@@](C)(CC(C)C)C(=O)N[C@@H](CC(C)C)C(=O)N[C@@H](CC(=O)O)C(=O)N[C@@H](CCCCN)C(=O)N[C@@H](CCCCNC(=O)COCCOCCNC(=O)COCCOCCNC(=O)CC[C@H](NC(=O)CCCCCCCCCCCCCCCCCCC(=O)O)C(=O)O)C(=O)N[C@@H](Cc1c[nH]cn1)C(=O)N[C@@H](CCC(N)=O)C(=O)NC(C)(C)C(=O)N[C@@H](CC(=O)O)C(=O)N[C@@H](Cc1ccccc1)C(=O)N[C@H](C(=O)N[C@@H](CCC(=O)O)C(=O)N[C@@](C)(Cc1ccc(O)cc1)C(=O)N[C@@H](CC(C)C)C(=O)N[C@@H](CC(C)C)C(=O)N[C@@H](CCC(=O)O)C(=O)NCC(=O)NCC(=O)N1CCC[C@H]1C(=O)N[C@@H](CO)C(=O)N[C@@H](CO)C(=O)NCC(=O)N[C@@H](C)C(=O)N1CCC[C@H]1C(=O)N1CCC[C@H]1C(=O)N1CCC[C@H]1C(=O)N[C@@H](CO)C(N)=O)C(C)C)[C@@H](C)CC [Example 91] (H-Y[Aib]EGTFISDYSI[αMeL]LDKK([AEEA-AEEA-γGlu-C20 diacid])HQ[Aib]DFVE[αMeY]LLEGGPSSGAPPPS-NH2), CC[C@H](C)[C@H](NC(=O)[C@H](CO)NC(=O)[C@H](Cc1ccc(O)cc1)NC(=O)[C@H](CC(=O)O)NC(=O)[C@H](CO)NC(=O)[C@@H](NC(=O)[C@](C)(CC)NC(=O)[C@@H](NC(=O)CNC(=O)[C@H](CCC(=O)O)NC(=O)C(C)(C)NC(=O)[C@@H](N)Cc1ccc(O)cc1)[C@@H](C)O)[C@@H](C)CC)C(=O)N[C@@](C)(CC(C)C)C(=O)N[C@@H](CC(C)C)C(=O)N[C@@H](CC(=O)O)C(=O)N[C@@H](CCCN)C(=O)N[C@@H](CCCCNC(=O)COCCOCCNC(=O)COCCOCCNC(=O)CC[C@H](NC(=O)CCCCCCCCCCCCCCCCCCC(=O)O)C(=O)O)C(=O)N[C@@H](Cc1c[nH]cn1)C(=O)N[C@@H](CCC(N)=O)C(=O)NC(C)(C)C(=O)N[C@@H](CC(=O)O)C(=O)N[C@@H](Cc1ccccc1)C(=O)N[C@H](C(=O)N[C@@H](CCC(=O)O)C(=O)N[C@@H](Cc1ccncc1)C(=O)N[C@@H](CC(C)C)C(=O)N[C@@H](CC(C)C)C(=O)N[C@@H](CCC(=O)O)C(=O)NCC(=O)NCC(=O)N1CCC[C@H]1C(=O)N[C@@H](CO)C(=O)N[C@@H](CO)C(=O)NCC(=O)N[C@@H](C)C(=O)N1CCC[C@H]1C(=O)N1CCC[C@H]1C(=O)N1CCC[C@H]1C(=O)N[C@@H](CO)C(N)=O)C(C)C [Example 76] (H-Y[Aib]EGT[Iva]ISDYSI[αMeL]LD[Orn]K([AEEA-AEEA-γGlu-C20 diacid])HQ[Aib]DFVE[4Pal]LLEGGPSSGAPPPS-NH2) is 7-fold higher in Ki: 37.4 nM for the first, 263 nM for the second.

First: CC[C@H](C)[C@H](NC(=O)[C@H](Cc1ccccc1)NC(=O)[C@@H](NC(=O)CNC(=O)[C@H](CCC(=O)O)NC(=O)C(C)(C)NC(=O)[C@@H](N)Cc1ccc(O)cc1)[C@@H](C)O)C(=O)N[C@@H](CO)C(=O)N[C@@H](CC(=O)O)C(=O)N[C@@H](Cc1ccc(O)cc1)C(=O)N[C@@H](CO)C(=O)N[C@H](C(=O)N[C@@](C)(CC(C)C)C(=O)N[C@@H](CC(C)C)C(=O)N[C@@H](CC(=O)O)C(=O)N[C@@H](CCC(=O)O)C(=O)N[C@@H](CCCCNC(=O)COCCOCCNC(=O)COCCOCCNC(=O)CC[C@H](NC(=O)CCCCCCCCCCCCCCCCCCC(=O)O)C(=O)O)C(=O)N[C@@H](Cc1c[nH]cn1)C(=O)N[C@@H](CCC(N)=O)C(=O)NC(C)(C)C(=O)N[C@@H](CC(=O)O)C(=O)N[C@@H](Cc1ccccc1)C(=O)N[C@H](C(=O)N[C@@H](CCC(=O)O)C(=O)N[C@@H](Cc1ccncc1)C(=O)N[C@@H](CC(C)C)C(=O)N[C@@H](CC(C)C)C(=O)N[C@@H](C)C(=O)N[C@H](C(=O)NCC(=O)N1CCC[C@H]1C(=O)N[C@@H](CO)C(=O)N[C@@H](CO)C(=O)NCC(=O)N[C@@H](C)C(=O)N1CCC[C@H]1C(=O)N1CCC[C@H]1C(=O)N1CCC[C@H]1C(=O)N[C@@H](CO)C(N)=O)[C@@H](C)O)C(C)C)[C@@H](C)CC [Example 83] (H-Y[Aib]EGTFISDYSI[αMeL]LDEK([AEEA-AEEA-γGlu-C20 diacid])HQ[Aib]DFVE[4Pal]LLATGPSSGAPPPS-NH2)
Second: CC[C@H](C)[C@H](NC(=O)[C@H](Cc1ccccc1)NC(=O)[C@@H](NC(=O)CNC(=O)[C@H](CCC(=O)O)NC(=O)C(C)(C)NC(=O)[C@@H](N)Cc1ccc(O)cc1)[C@@H](C)O)C(=O)N[C@@H](CO)C(=O)N[C@@H](CC(=O)O)C(=O)N[C@@H](Cc1ccc(O)cc1)C(=O)N[C@@H](CO)C(=O)N[C@H](C(=O)N[C@@](C)(CC(C)C)C(=O)N[C@@H](CC(C)C)C(=O)N[C@@H](CC(=O)O)C(=O)N[C@@H](CCC(=O)O)C(=O)N[C@@H](CCCCNC(=O)COCCOCCNC(=O)COCCOCCNC(=O)CC[C@H](NC(=O)CCCCCCCCCCCCCCCCCCC(=O)O)C(=O)O)C(=O)N[C@@H](Cc1c[nH]cn1)C(=O)N[C@@H](CCC(N)=O)C(=O)NC(C)(C)C(=O)N[C@@H](CC(=O)O)C(=O)N[C@@H](Cc1ccccc1)C(=O)N[C@H](C(=O)N[C@@H](CCC(=O)O)C(=O)N[C@@H](Cc1ccncc1)C(=O)N[C@@H](CC(C)C)C(=O)N[C@@H](CC(C)C)C(=O)N[C@@H](C)C(=O)NCC(=O)NCC(=O)N1CCC[C@H]1C(=O)N[C@@H](CO)C(=O)N[C@@H](CO)C(=O)NCC(=O)N[C@@H](C)C(=O)N1CCC[C@H]1C(=O)N1CCC[C@H]1C(=O)N1CCC[C@H]1C(=O)N[C@@H](CO)C(N)=O)C(C)C)[C@@H](C)CC [Example 86]
The Ki of the first is 4.2-fold higher: 452 nM for the first, 108 nM for the second. The second binds more tightly here.

Going from CC[C@H](C)[C@H](NC(=O)[C@H](CCCN)NC(=O)[C@H](CC(=O)O)NC(=O)[C@H](CC(C)C)NC(=O)[C@](C)(CC(C)C)NC(=O)[C@@H](NC(=O)[C@H](CO)NC(=O)[C@H](Cc1ccc(O)cc1)NC(=O)[C@H](CC(=O)O)NC(=O)[C@H](CO)NC(=O)[C@@H](NC(=O)[C@H](Cc1ccccc1)NC(=O)[C@@H](NC(=O)CNC(=O)[C@H](CCC(=O)O)NC(=O)C(C)(C)NC(=O)[C@@H](N)Cc1ccc(O)cc1)[C@@H](C)O)[C@@H](C)CC)[C@@H](C)CC)C(=O)N[C@@H](Cc1c[nH]cn1)C(=O)N[C@@H](CCC(N)=O)C(=O)NC(C)(C)C(=O)N[C@@H](CC(=O)O)C(=O)N[C@@H](Cc1ccccc1)C(=O)N[C@H](C(=O)N[C@@H](CCC(=O)O)C(=O)N[C@@H](Cc1ccncc1)C(=O)N[C@@H](CCCCNC(=O)COCCOCCNC(=O)COCCOCCNC(=O)CC[C@H](NC(=O)CCCCCCCCCCCCCCCCCCC(=O)O)C(=O)O)C(=O)N[C@@H](CC(C)C)C(=O)N[C@@H](CCC(=O)O)C(=O)NCC(=O)NCC(=O)N1CCC[C@H]1C(=O)N[C@@H](CO)C(=O)N[C@@H](CO)C(=O)NCC(=O)N[C@@H](C)C(=O)N1CCC[C@H]1C(=O)N1CCC[C@H]1C(=O)N1CCC[C@H]1C(=O)N[C@@H](CO)C(N)=O)C(C)C [Example 108] (H-Y[Aib]EGTFISDYSI[αMeL]LD[Orn]IHQ[Aib]DFVE[4Pal]K([AEEA-AEEA-γGlu-C20 diacid])LEGGPSSGAPPPS-NH2) to CC[C@H](C)[C@H](NC(=O)[C@H](Cc1ccccc1)NC(=O)[C@@H](NC(=O)CNC(=O)[C@H](CCC(=O)O)NC(=O)C(C)(C)NC(=O)[C@@H](N)Cc1ccc(O)cc1)[C@@H](C)O)C(=O)N[C@@H](CO)C(=O)N[C@@H](CC(=O)O)C(=O)N[C@@H](Cc1ccc(O)cc1)C(=O)N[C@@H](CO)C(=O)N[C@H](C(=O)N[C@@](C)(CC(C)C)C(=O)N[C@@H](CC(C)C)C(=O)N[C@@H](CC(=O)O)C(=O)N[C@@H](CCCN)C(=O)N[C@@H](CCCCNC(=O)COCCOCCNC(=O)COCCOCCNC(=O)CC[C@H](NC(=O)CCCCCCCCCCCCCCCCCCC(=O)O)C(=O)O)C(=O)N[C@@H](Cc1c[nH]cn1)C(=O)N[C@@H](CCC(N)=O)C(=O)NC(C)(C)C(=O)N[C@@H](CC(=O)O)C(=O)N[C@@H](Cc1ccccc1)C(=O)N[C@H](C(=O)N[C@@H](CCC(=O)O)C(=O)N[C@@H](Cc1ccncc1)C(=O)N[C@@H](CC(C)C)C(=O)N[C@@H](CC(C)C)C(=O)N[C@@H](CCC(=O)O)C(=O)N[C@@H](CCC(N)=O)C(=O)NCC(=O)N1CCC[C@H]1C(=O)N[C@@H](CO)C(=O)N[C@@H](CO)C(=O)NCC(=O)N[C@@H](C)C(=O)N1CCC[C@H]1C(=O)N1CCC[C@H]1C(=O)N1CCC[C@H]1C(=O)N[C@@H](CO)C(N)=O)C(C)C)[C@@H](C)CC [Example 81] (H-Y[Aib]EGTFISDYSI[αMeL]LD[Orn]K([AEEA-AEEA-γGlu-C20 diacid])HQ[Aib]DFVE[4Pal]LLEQGPSSGAPPPS-NH2), the Ki falls from over 910 nM to 714 nM. The second binds more tightly here.

With CC[C@H](C)[C@H](NC(=O)[C@H](CO)NC(=O)[C@H](Cc1ccc(O)cc1)NC(=O)[C@H](CC(=O)O)NC(=O)[C@H](CO)NC(=O)[C@@H](NC(=O)[C@H](Cc1ccccc1)NC(=O)[C@@H](NC(=O)CNC(=O)[C@H](CCC(=O)O)NC(=O)[C@@H](C)NC(=O)[C@@H](N)Cc1ccc(O)cc1)[C@@H](C)O)[C@@H](C)CC)C(=O)N[C@@H](CC(C)C)C(=O)N[C@@H](CC(C)C)C(=O)N[C@@H](CC(=O)O)C(=O)N[C@@H](CCCCN)C(=O)N[C@@H](CCCCNC(=O)COCCOCCNC(=O)COCCOCCNC(=O)CC[C@H](NC(=O)CCCCCCCCCCCCCCCCC(=O)O)C(=O)O)C(=O)N[C@@H](C)C(=O)N[C@@H](CCC(N)=O)C(=O)NC(C)(C)C(=O)N[C@@H](CC(=O)O)C(=O)N[C@@H](Cc1ccccc1)C(=O)N[C@H](C(=O)N[C@@H](CC(N)=O)C(=O)N[C@@H](Cc1c[nH]c2ccccc12)C(=O)N[C@@H](CC(C)C)C(=O)N[C@@H](CC(C)C)C(=O)N[C@@H](CCC(=O)O)C(=O)N[C@@H](CCC(N)=O)C(=O)NCC(=O)N1CCC[C@H]1C(=O)N[C@@H](CO)C(=O)N[C@@H](CO)C(=O)NCC(=O)N[C@@H](C)C(=O)N1CCC[C@H]1C(=O)N1CCC[C@H]1C(=O)N1CCC[C@H]1C(=O)N[C@@H](CO)C(N)=O)C(C)C [Example 17] (H-Y[dA]EGTFISDYSILLDKK([AEEA-AEEA-γGlu-C18 diacid])AQ[Aib]DFVNWLLEQGPSSGAPPPS-NH2) the Ki was 106 nM.
